From patent US20260176289A1, “SMALL MOLECULE INHIBITORS OF KRAS PROTEINS” (Merck Sharp & Dohme LLC, priority 2022, published 2026)

Tests used:
KRAS-G12D = KRAS-G12D (Homo sapiens, UniProt P01116, G12D); experiment: SOS-catalyzed nucleotide exchange assay (Procedure A, TR-FRET), KRAS-G12D; type: biochemical; conditions: nucleotide exchange, read-out: KRAS G12D GNE IC50
Text: (§1) Procedure for SOS-Catalyzed Nucleotide Exchange Assay for KRAS-WT, G12C/D/V, G13D, HRAS, and NRAS (Procedure A)
(§2) Recombinant KRAS-G12C protein used in this assay has an additional triple mutation (C51S/C80L/C118S). Whereas KRAS-WT, G12D/V, G13D, HRAS and NRAS are in context of their WT protein sequence background. Specifically, the SOS-catalyzed nucleotide exchange assay utilizes a preformed TR-FRET complex containing a specific biotinylated RAS protein (KRAS-WT, G12C/V/D, G13D, HRAS, NRAS; described above) with Bodipy-GDP, and Terbium-streptavidin. Compounds are preincubated with this complex for 60 minutes. Subsequently, recombinant human SOS protein and unlabeled GTP are added to initiate the exchange reaction. Small molecule inhibitors stabilize the Bodipy-GDP complex whereas the untreated protein rapidly exchanges Bodipy-GDP for unlabeled GTP resulting in reduced TR-FRET signal.
(§3) To assemble the preformed TR-FRET complexes, each biotinylated RAS protein is diluted to 2 μM in an EDTA Buffer (20 mM HEPES pH 7.5, 50 mM sodium chloride, 10 mM EDTA, and 0.01% Tween) and incubated at room temperature for one hour. This mixture is then further diluted to 90 nM in an Assay Buffer (20 mM HEPES pH 7.5, 150 mM sodium chloride, 10 mM magnesium chloride, and 0.005% Tween) containing 15 nM of Terbium-Streptavidin (Invitrogen, catalog #PV3577) and 900 nM of Bodipy-GDP (Invitrogen, catalog #G22360) and incubated at room temperature for six hours. It should be noted that this preformed TR-FRET complex for each of the RAS protein were made ahead of time, aliquoted and stored at −80° C. until the day of the experiment.
(§4) Each test compound (10 mM stock in DMSO) is diluted in DMSO to make a final-10-point, 3-fold dilution and is acoustically dispensed into a 384-well assay plate (Corning, catalog #3820) using an Echo 550 (Labcyte). Each well of the assay plate receives 3 μL of a specific 3×RAS preformed TR-FRET complex and 3 μL of Assay Buffer and is incubated at room temperature for 60 minutes (preincubation time). Each well then receives 3 μL of 3×recombinant human SOS protein and GTP (Sigma, G8877) in Assay Buffer and is incubated at room temperature for 30 minutes (G13D), 60 minutes (KRAS WT/G12C/D, H/NRAS) or 90 minutes for G12V. The final reaction in each well of 9 μL consists of 3 mM GTP, specific Ras and SOS proteins in the following concentrations: KRAS-G12C/SOS=3 nM/40 nM, KRAS-WT and G12D/SOS=1 nM/40 nM, KRAS-G12V/SOS=1.25 nM/160 nM. KRAS-G13D/SOS=1.25 nM/0 nM, HRAS and NRAS=1.25 nM/40 nM.
(§5) The time-resolved fluorescence resonance energy transfer (TR-FRET) signal is measured on an Envision (PerkinElmer) plate reader: Excitation filter=340 nm; emission 1=495 nm; emission2=520 nm; dichroic mirror=D400/D505; delay time=[…]. The signal of each well is determined as the ratio of the emission at 520 nm to that at 495 nm. Percent effect of each well is determined after normalization to control wells containing DMSO (no effect) or a saturating concentration of inhibitor (max effect). The apparent effect as a function of compound concentration is fit to a four-parameter logistic equation.

AsPC-1 cells = experiment: Cellular phospho-ERK assay, AsPC-1 cells (homozygous KRAS-G12D); type: cell-based; conditions: Homo sapiens, ASPC1, 2 h, KRAS-G12D, 2 hours, read-out: AsPC1 pERK IC50
Description: Procedure for Cellular Phospho-ERK Assay in KRAS Wild Type and Mutant (G12D, G12V) Cell Lines
MKN-1 cells (JCRB JCRB0252) containing amplified wild-type KRAS, were cultured in growth medium that contains RPMI 1640-GlutaMAX™-I (ThermoFisher Scientific 61870) containing 10% heat inactivated fetal bovine serum (ThermoFisher Scientific 10091148), 1 mM sodium pyruvate and 10 mM HEPES. PANC08.13 cells (ATCC® CRL-2551™), containing homozygous KRAS-G12D activating mutation, were cultured in growth medium made of RPMI1640-GlutaMAX™-I (ThermoFisher Scientific 61870) containing 15% heat inactivated fetal bovine serum (ThermoFisher Scientific 10091148)). AsPC-1 cells (ATCC® CRL-1682™), containing homozygous KRAS-G12D activating mutation, were cultured in T150 flask in growth medium (RPMI medium 1640-GlutaMAX™-I (ThermoFisher Scientific 61870) containing 10% fetal bovine serum (ThermoFisher Scientific 10091148)). SW620 cells (ATCC® […]), containing homozygous KRAS-G12V activating mutation, were cultured in growth medium that contains RPMI 1640-GlutaMAX™-I (ThermoFisher Scientific 61870) containing 10% heat inactivated fetal bovine serum (ThermoFisher Scientific 10091148).
Cells for the assay were harvested in growth medium after TrypLE (ThermoFisher scientific 12604021) digestion and were seeded in a 384-well collagen coated cell culture plate (Corning 356702) at a density of 10,000-15,000 cells/20 μL/well, and incubated at 37° C., 5% CO2 overnight. The compound (with 10 mM stock concentration) dose-response titrations were prepared [30 μM final ERK detection assay concentration and 1:3 dilutions, 10-point dose response] and appropriate amounts (270 nL) of test compounds were dispensed in a 384-well intermediate plate using an Echo 550 liquid handler. 30 μL/well of RPMI medium 1640-GlutaMAX™—I was added to the intermediate plate and the contents of the intermediate plate (10 μL/well) were then transferred to the 384-well collagen coated cell culture plate, which was incubated at 37° C., 5% CO2 for 2 hours. After removal of medium from the collagen coated cell culture plate, cells were lysed in lysis buffer from Alpha SureFire® Ultra™ Multiplex p-ERK and total ERK assay kit (PerkinElmer MPSU-PTERK) containing Halt™ Protease and Phosphatase inhibitor cocktail (ThermoFisher Scientific 78446) at room temperature with constant shaking at 300 rpm for 30 minutes. The cell lysates were then transferred to an OptiPlate-384 plate (PerkinElmer 6005620), and the phosphorylation of ERK (p-ERK) and total ERK levels were detected by Alpha SureFire® Ultra™ Multiplex p-EEK kit and total ERK assay kit (PerkinElmer MPSU-PTERK) following the manufacturer's protocol. Assay plates were read on a En Vision Multimode Plate Reader (PerkinElmer), and the ratio of p-ERK vs. total ERK in each well was used as the final readout. Dose response curves were analyzed using a 4-parameter logistic model to calculate IC50 values using Spotfire software.

KRAS-G12V = KRAS-G12V (Homo sapiens, UniProt P01116, G12V); experiment: SOS-catalyzed nucleotide exchange assay (Procedure A, TR-FRET), KRAS-G12V; type: biochemical; conditions: nucleotide exchange, read-out: KRAS G12V GNE IC50
Sequence of KRAS-G12V (P01116 with tags, fused parts or gaps isoform P01116-2 G12V): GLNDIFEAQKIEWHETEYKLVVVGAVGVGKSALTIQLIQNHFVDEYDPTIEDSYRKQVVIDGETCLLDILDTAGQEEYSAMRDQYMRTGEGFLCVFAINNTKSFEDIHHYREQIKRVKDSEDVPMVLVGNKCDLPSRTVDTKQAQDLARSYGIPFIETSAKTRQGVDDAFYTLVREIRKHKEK
Text: as §1, §2, §3, §4, §5

KRAS-WT = KRAS-WT (Homo sapiens, UniProt P01116); experiment: SOS-catalyzed nucleotide exchange assay (Procedure A, TR-FRET), KRAS-WT; type: biochemical; conditions: nucleotide exchange, read-out: KRAS WT GNE IC50
Sequence of KRAS-WT (P01116 with tags, fused parts or gaps isoform P01116-2): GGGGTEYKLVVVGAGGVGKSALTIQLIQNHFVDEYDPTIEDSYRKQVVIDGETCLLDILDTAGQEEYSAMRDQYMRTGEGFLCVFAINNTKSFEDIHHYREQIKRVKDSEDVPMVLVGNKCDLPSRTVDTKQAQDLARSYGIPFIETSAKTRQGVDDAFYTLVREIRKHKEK
Text: as §1, §2, §3, §4, §5

Sequence of KRAS-G12D (P01116 with tags, fused parts or gaps isoform P01116-2 G12D): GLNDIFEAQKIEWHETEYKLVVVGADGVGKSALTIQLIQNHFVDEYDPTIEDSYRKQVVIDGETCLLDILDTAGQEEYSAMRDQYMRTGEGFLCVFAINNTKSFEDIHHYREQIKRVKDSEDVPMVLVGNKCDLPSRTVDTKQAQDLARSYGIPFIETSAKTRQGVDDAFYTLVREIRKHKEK

| Compound | IC50 (KRAS-G12D) [nM] | IC50 (AsPC-1 cells) [nM] | IC50 (KRAS-G12V) [nM] | IC50 (KRAS-WT) [nM] |
| --- | --- | --- | --- | --- |
| Cn1c2nc(OC[C@@]34CCCN3C[C@H](F)C4)nc(N3CCOC[C@@](C)(O)C3)c2c2ccnc(-c3c(C4CC4)c(Cl)cc4[nH]ncc34)c21 (single isomer, unassigned) [Ex-2] | 35.4 | 426 | 36.8 | 64 |
| CC1CCc2cccc(-c3nccc4c3sc3nc(OC[C@@]56CCCN5C[C@H](F)C6)nc(N5CCOC[C@@](C)(O)C5)c34)c21 (single isomer, unassigned) [Ex-117] | 73.6 | 720 | 96.1 | 218 |
| CC1CCc2ccc(F)c(-c3nccc4c3sc3nc(OC[C@@]56CCCN5C[C@H](F)C6)nc(N5CCOC[C@@](C)(O)C5)c34)c21 (single isomer, unassigned) [Ex-118] | 150 | 1060 | 123 | 432 |
| C[C@@]1(O)COCCN(c2nc(OC[C@@]34CCCN3C[C@H](F)C4)nc3sc4c(-c5cccc6c5CC5CC65)nccc4c23)C1 (single isomer, unassigned) [Ex-119] | 230 | 2150 | 157 | 662 |
| Cc1cc2[nH]ncc2c(-c2nccn3c2c(Cl)c2nc(OC[C@@]45CCCN4C[C@H](F)C5)nc(N4CCOC[C@@](C)(O)C4)c23)c1C1CC1 (single isomer, unassigned) [Ex-297] | 23.1 | 636 | 57.6 | 67.8 |
| Cc1cc2[nH]ncc2c(-c2nccc3c2C2(CC2)c2nc(OC[C@@]45CCCN4C[C@H](F)C5)nc(N4CCOC[C@@](C)(O)C4)c2-3)c1C(F)(F)F (single isomer, unassigned) [Ex-307] | 8.96 | 258 | 24.7 | 22.4 |
| C#Cc1c(F)ccc2cc3[nH]ncc3c(-c3nccc4c5c(N6CCOC[C@@](C)(O)C6)nc(OC[C@@]67CCCN6C[C@H](F)C7)nc5n(C)c34)c12 [Ex-25, (6S)-4-(8-(5-ethynyl-6-fluoro-1H-benzo[f]indazol-4-yl)-2-(((2R,7aS)-2-fluorotetrahydro-1H-pyrrolizin-7a(5H)-yl)methoxy)-9-methyl-9H-pyrido[4′,3′:4,5]pyrrolo[2,3-d]pyrimidin-4-yl)-6-methyl-1,4-oxazepan-6-ol] | 61.6 | 1150 | 89.8 | 136 |
| COc1cc2c(sc3nc(OC[C@@]45CCCN4C[C@H](F)C5)nc(N4CCOC[C@@](C)(O)C4)c32)c(-c2c(C(F)(F)F)c(C)cc3[nH]ncc23)n1 [Ex-27, (6S)-4-(2-(((2R,7aS)-2-fluorotetrahydro-1H-pyrrolizin-7a(5H)-yl)methoxy)-6-methoxy-8-(6-methyl-5-(trifluoromethyl)-1H-indazol-4-yl)pyrido[4′,3′:4,5]thieno[2,3-d]pyrimidin-4-yl)-6-methyl-1,4-oxazepan-6-ol] | 196 | 660 | 221 | 793 |
| Cc1cc2[nH]ncc2c(-c2nc(-c3ccoc3)cc3c2sc2nc(OC[C@@]45CCCN4C[C@H](F)C5)nc(N4CCOC[C@@](C)(O)C4)c23)c1C(F)(F)F [Ex-29, (6S)-4-(2-(((2R,7aS)-2-fluorotetrahydro-1H-pyrrolizin-7a(5H)-yl)methoxy)-6-(furan-3-yl)-8-(6-methyl-5-(trifluoromethyl)-1H-indazol-4-yl)pyrido[4′,3′:4,5]thieno[2,3-d]pyrimidin-4-yl)-6-methyl-1,4-oxazepan-6-ol] | 251 | 1530 | 143 | 852 |
| C[C@@]1(O)COCCN(c2nc(OC[C@@]34CCCN3C[C@H](F)C4)nc3sc4c(-c5cccc(Cl)c5C5CC5)nccc4c23)C1 [Ex-122, (S)-4-(8-(3-chloro-2-cyclopropylphenyl)-2-(((2R,7aS)-2-fluorotetrahydro-1H-pyrrolizin-7a(5H)-yl)methoxy)pyri-do[4′,3′:4,5]thieno[2,3-d]pyrimidin-4-yl)-6-methyl-1,4-oxazepan-6-ol] | 404 |  | 280 | 908 |
| Cc1cc2[nH]ncc2c(-c2nccc3c2sc2nc(OC[C@@]45CCCN4C[C@H](F)C5)nc(N4CCOC[C@@](C)(O)C4)c23)c1C(C)(C)C#N [Ex-154, 2-(4-(2-(((2R,7aS)-2-fluorotetrahydro-1H-pyrrolizin-7a(5H)-yl)methoxy)-4-((S)-6-hydroxy-6-methyl-1,4-oxazepan-4-yl)pyrido[4′,3′:4,5]thieno[2,3-d]pyrimidin-8-yl)-6-methyl-1H-indazol-5-yl)-2-methylpropanenitrile] | 104 |  | 103 | 277 |
| C=C1CN2CC(=C)CC2(COc2nc(N3CCOC[C@@](C)(O)C3)c3c(n2)sc2c(-c4c(C5CC5)c(Cl)cc5[nH]ncc45)nccc23)C1 [Ex-225, (6S)-4-(8-(6-chloro-5-cyclopropyl-1H-indazol-4-yl)-2-((2,6-dimethylene-tetrahydro-1H-pyrrolizin-7a(5H)-yl)methoxy)pyrido [4′,3′:4,5]thieno[2,3-d]pyrimidin-4-yl)-6-methyl-1,4-oxaze-pan-6-ol] | 12.7 |  | 21.5 | 39.9 |
